Tests used:
[1] = biological target: Activin receptor type-1-like (Homo sapiens) (UniProt P37023); experiment: Inhibition of human ALK1/ACVRL1 using casein as substrate at 1 uM in presence of 32P-ATP by Hotspot assay relative to control; values are per cent of control
[2] = biological target: Mitogen-activated protein kinase 1 (Homo sapiens) (UniProt P28482); experiment: Inhibition of human ERK2/MAPK1 using myelin basic protein as substrate at 1 uM in presence of 32P-ATP by Hotspot assay relative to control; values are per cent of control
[3] = biological target: Fibroblast growth factor receptor 2 (Homo sapiens) (UniProt P21802); experiment: Inhibition of human FGFR2 using poly[Glu:Tyr] (4:1) as substrate at 1 uM in presence of 32P-ATP by Hotspot assay relative to control; values are per cent of control
[4] = biological target: Serine/threonine-protein kinase B-raf (Homo sapiens) (UniProt P15056); experiment: Inhibition of human BRAF using MEK1 (K97R) as substrate at 1 uM in presence of 32P-ATP by Hotspot assay relative to control; values are per cent of control
[5] = biological target: T1, Serine/threonine-protein kinase Nek9 (Homo sapiens) (UniProt Q8TD19); experiment: Inhibition of human NEK9 using myelin basic protein as substrate at 1 uM in presence of 32P-ATP by Hotspot assay relative to control; values are per cent of control
T1 sequence (whole entry): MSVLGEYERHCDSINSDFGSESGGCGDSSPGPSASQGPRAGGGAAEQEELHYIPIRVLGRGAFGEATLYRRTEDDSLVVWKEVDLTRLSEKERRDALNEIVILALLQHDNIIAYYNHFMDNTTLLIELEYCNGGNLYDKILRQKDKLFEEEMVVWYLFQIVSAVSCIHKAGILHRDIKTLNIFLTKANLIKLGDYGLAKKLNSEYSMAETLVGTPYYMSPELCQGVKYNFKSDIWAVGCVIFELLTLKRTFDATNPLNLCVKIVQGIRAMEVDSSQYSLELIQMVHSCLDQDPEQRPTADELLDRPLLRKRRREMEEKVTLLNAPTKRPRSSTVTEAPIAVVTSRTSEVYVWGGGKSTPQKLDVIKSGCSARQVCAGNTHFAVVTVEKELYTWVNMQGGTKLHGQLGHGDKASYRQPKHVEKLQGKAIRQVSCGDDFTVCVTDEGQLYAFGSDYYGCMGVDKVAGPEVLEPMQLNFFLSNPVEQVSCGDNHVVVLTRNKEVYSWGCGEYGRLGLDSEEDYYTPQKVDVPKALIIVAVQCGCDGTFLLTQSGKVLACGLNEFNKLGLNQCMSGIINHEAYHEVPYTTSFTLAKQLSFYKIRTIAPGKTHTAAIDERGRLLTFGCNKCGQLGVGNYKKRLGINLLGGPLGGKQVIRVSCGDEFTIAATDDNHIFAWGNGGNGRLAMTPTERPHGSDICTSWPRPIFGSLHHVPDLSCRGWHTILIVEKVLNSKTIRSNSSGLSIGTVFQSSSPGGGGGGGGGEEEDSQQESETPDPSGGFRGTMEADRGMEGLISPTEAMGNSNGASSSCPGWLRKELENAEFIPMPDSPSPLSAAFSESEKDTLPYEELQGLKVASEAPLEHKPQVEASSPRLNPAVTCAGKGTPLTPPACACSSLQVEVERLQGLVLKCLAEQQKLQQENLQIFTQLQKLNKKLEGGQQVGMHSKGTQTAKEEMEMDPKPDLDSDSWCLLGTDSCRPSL

[6] = biological target: Protein kinase C gamma type (Homo sapiens) (UniProt P05129); experiment: Inhibition of human PKCg using ERMRPRKRQGSVRRRV as substrate at 1 uM in presence of 32P-ATP by Hotspot assay relative to control; values are per cent of control
[7] = biological target: Receptor-interacting serine/threonine-protein kinase 2 (Homo sapiens) (UniProt O43353); experiment: Inhibition of human RIPK2 using myelin basic protein as substrate at 1 uM in presence of 32P-ATP by Hotspot assay relative to control; values are per cent of control
[8] = biological target: Serine/threonine-protein kinase OSR1 (Homo sapiens) (UniProt O95747); experiment: Inhibition of human OSR1/OXSR1 using RRHYYYDTHTNTYYLRTFGHNTRR as substrate at 1 uM in presence of 32P-ATP by Hotspot assay relative to control; values are per cent of control
[9] = biological target: T2, Serine/threonine-protein kinase Nek3 (Homo sapiens) (UniProt P51956); experiment: Residual activity of human NEK3 using myelin basic protein as substrate at 1 uM in presence of 32P-ATP by Hotspot assay relative to control
T2 sequence (whole entry): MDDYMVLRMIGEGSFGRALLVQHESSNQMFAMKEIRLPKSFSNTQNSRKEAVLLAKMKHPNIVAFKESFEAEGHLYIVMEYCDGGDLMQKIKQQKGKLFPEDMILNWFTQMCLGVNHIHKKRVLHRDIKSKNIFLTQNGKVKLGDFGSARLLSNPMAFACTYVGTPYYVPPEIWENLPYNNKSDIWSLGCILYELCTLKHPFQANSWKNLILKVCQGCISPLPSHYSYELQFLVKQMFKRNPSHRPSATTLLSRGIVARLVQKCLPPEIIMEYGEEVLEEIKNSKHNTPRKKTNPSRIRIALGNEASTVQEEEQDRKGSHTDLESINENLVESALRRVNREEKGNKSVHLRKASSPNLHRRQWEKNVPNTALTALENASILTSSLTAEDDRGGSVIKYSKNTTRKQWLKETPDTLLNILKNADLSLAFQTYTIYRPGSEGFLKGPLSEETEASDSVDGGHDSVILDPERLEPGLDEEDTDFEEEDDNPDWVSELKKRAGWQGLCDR

Fibroblast growth factor receptor 2 (Homo sapiens), sequence (P21802 22-821 limits assumed): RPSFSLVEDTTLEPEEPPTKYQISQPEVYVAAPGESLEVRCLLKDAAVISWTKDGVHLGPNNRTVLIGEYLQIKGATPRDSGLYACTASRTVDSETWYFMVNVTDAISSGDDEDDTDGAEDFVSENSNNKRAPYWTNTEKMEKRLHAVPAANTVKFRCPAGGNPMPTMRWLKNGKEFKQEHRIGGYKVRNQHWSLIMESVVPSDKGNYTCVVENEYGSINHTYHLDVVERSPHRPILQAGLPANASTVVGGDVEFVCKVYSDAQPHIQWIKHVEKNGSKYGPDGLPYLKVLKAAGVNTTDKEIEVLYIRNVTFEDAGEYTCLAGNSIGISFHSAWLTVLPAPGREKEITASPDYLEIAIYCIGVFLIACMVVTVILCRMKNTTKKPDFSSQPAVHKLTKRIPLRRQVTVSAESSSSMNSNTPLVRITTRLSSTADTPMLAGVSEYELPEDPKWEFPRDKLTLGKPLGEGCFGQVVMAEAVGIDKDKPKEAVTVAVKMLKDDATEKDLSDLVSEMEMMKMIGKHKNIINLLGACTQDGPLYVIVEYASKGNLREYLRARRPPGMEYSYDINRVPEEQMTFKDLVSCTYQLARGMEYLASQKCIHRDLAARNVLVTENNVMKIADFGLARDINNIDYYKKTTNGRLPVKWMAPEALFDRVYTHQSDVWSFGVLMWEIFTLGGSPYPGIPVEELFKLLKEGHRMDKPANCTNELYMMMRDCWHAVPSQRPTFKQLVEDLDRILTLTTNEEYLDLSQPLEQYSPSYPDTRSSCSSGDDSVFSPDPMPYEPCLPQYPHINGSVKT
Serine/threonine-protein kinase B-raf (Homo sapiens), sequence (P15056 whole entry): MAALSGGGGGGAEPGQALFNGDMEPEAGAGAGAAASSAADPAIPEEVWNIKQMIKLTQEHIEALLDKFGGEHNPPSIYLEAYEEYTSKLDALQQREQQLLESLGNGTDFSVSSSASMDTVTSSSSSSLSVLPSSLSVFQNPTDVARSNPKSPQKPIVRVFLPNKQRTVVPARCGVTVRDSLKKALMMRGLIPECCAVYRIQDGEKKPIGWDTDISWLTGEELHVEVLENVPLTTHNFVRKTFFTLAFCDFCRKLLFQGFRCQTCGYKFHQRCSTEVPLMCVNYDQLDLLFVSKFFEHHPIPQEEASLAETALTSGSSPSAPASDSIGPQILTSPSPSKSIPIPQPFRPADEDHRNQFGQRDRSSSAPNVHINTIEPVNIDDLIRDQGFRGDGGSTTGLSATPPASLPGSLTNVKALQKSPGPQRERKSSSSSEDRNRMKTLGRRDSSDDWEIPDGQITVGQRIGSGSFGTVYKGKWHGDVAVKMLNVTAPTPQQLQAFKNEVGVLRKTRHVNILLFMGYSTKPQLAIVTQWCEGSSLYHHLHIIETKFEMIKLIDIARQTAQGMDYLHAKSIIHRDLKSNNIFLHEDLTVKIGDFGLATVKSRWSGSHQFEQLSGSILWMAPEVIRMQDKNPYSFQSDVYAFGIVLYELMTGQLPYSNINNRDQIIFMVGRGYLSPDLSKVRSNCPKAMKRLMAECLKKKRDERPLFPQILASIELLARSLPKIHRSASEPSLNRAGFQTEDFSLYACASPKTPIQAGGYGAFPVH
Receptor-interacting serine/threonine-protein kinase 2 (Homo sapiens), sequence (O43353 whole entry): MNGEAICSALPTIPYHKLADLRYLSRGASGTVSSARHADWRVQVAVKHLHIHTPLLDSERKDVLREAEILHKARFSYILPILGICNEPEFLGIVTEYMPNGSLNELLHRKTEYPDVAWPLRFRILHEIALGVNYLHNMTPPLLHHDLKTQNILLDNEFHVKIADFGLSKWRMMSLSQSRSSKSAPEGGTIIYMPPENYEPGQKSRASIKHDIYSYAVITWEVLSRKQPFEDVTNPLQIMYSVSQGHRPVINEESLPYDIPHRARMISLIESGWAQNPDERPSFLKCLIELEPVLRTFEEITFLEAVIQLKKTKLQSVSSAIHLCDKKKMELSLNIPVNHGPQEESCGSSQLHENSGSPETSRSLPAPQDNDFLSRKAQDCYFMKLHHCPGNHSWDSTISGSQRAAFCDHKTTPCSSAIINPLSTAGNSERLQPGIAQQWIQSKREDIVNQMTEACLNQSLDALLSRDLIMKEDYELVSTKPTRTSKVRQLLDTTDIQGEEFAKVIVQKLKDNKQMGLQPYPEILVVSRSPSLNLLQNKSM
Serine/threonine-protein kinase OSR1 (Homo sapiens), sequence (O95747 2-527 limits assumed): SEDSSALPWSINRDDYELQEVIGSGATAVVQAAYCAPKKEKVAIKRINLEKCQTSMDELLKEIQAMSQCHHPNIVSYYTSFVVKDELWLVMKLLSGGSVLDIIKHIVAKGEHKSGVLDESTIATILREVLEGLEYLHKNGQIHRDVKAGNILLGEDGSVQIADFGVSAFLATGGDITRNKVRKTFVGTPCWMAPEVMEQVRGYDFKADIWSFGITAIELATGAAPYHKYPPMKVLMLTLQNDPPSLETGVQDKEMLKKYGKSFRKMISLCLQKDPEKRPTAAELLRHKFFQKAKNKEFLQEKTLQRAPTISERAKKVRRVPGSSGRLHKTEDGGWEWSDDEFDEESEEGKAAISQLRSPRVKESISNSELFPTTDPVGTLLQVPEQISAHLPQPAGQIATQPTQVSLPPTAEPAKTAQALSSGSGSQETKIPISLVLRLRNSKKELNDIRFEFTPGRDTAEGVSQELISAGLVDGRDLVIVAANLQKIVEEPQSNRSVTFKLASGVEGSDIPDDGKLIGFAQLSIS
Mitogen-activated protein kinase 1 (Homo sapiens), sequence (P28482 whole entry): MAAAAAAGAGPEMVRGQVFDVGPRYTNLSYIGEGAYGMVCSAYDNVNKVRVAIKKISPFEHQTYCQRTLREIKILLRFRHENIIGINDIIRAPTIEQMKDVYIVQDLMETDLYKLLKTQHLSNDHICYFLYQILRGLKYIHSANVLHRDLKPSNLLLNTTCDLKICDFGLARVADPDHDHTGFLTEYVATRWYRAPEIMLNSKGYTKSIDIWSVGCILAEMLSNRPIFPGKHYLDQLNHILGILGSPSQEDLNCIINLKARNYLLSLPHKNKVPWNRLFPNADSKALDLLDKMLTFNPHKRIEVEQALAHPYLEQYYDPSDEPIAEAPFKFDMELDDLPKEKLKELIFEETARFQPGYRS
Activin receptor type-1-like (Homo sapiens), sequence (P37023 whole entry): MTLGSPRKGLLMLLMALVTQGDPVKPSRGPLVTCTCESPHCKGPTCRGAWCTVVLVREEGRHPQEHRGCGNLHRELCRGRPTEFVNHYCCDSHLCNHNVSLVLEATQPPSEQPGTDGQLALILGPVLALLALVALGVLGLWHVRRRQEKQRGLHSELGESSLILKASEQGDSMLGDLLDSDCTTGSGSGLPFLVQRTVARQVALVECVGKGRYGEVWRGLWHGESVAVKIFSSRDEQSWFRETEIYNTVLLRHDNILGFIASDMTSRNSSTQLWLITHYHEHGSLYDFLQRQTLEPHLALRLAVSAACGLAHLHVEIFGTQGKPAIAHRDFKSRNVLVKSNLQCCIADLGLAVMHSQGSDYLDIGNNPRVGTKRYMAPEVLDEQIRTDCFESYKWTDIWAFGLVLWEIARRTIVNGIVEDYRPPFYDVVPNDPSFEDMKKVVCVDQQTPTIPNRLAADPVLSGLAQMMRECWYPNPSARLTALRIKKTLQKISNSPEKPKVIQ

Structure (SMILES) | residual activity [1] [%] | residual activity [2] [%] | residual activity [3] [%] | residual activity [4] [%] | residual activity [5] [%] | residual activity [6] [%] | residual activity [7] [%] | residual activity [8] [%] | residual activity [9] [%]
Cc1cc(-c2cnc(N)c3c(-c4ccc5scnc5c4)csc23)n(C)n1 | 93.9 | 109 | 61.7 | 79.6 | 91 | 86.6 | 13.6 | 97.4 | 99.7
CNC(=O)c1ccc2c(c1)ncn2-c1ccc(CC(=O)OC(C)(C)C)cc1 | 95.4 | 99.8 | 66.7 | 96.1 | 102 | 85.7 | 82.3 | 98.2 | 91.3
CC(C)S(=O)(=O)c1ccc2nccc(Nc3ccc4scnc4c3)c2c1 | 102 | 94.6 | 73.7 | 90.2 | 86.7 | 99.4 | 20.7 | 97.8 | 92
